Test results reported in patent publication US8110220B2, “Temperature sensitive polymers” (Universiteit Utrecht, priority 2005, dated 2012).

Experiment: Degradation kinetics (hydrolysis) of oligolactate monomers, HPLC
Format: physicochemical
Conditions: pH 7.4, 37° C.
Method: The degradation kinetic studies of HEMAm-oligolactates were conducted as described by Neradovic et al [Macromolecules; 2003; 36(20); 7491-7498]. In brief, a 10 mM solution of HEMAm-oligolactate in DMSO was diluted 10 times with 100 mM PBS (pH 7.4) in a glass vial and the pH was adjusted to pH 7.4 with 4 M HCl. The resulting solutions of HEMAm-monolactate, -dilactate, -trilactate and—tetralactate were incubated in a shaking water bath at 37° C. At regular time intervals samples of 300 μl were withdrawn and 700 μl of 1 M sodium acetate buffer (pH 3.8) was added to prevent further hydrolysis. The samples were stored at 4° C. prior to HPLC analysis. The hydrolysis of HEMAm-trilactate and—tetralactate was also investigated in an acetonitril-PBS pH7.2 mixture (50:50 w/w) of lower dielectric constant to slow down the hydrolysis rate. The HPLC analysis was carried out on a Waters system (Waters Associates Inc., Milford, Mass., USA). This consisted of a pump Model 600, an autoinjector Model 717, a variable wavelength absorbance detector Model 996 and an analytical reversed phase column LiChrosphere 100 RP-18 (5 μm, 125×4 mm i.d.) with an RP-18 guard column (4×4 mm) (Merck) was used. The injection volume was 50 μl and the detection wavelength was 254 nm. […] The chromatograms were analyzed with Empower Software Version 1154 (Waters Associates Inc.). […]

SMILES	hydrolysis kinetics compared
C=C(C)C(=O)NCCOC(=O)C(C)OC(=O)C(C)OC(=O)C(C)OC(=O)C(C)O (centres unmarked) [HEMAm-Lac4, HEMAm-tetralactate]	even faster hydrolysis kinetics than HEMAm-Lac1-2
C=C(C)C(=O)NCCOC(=O)C(C)OC(=O)C(C)OC(=O)C(C)O (centres unmarked) [HEMAm-Lac3, HEMAm-trilactate]	even faster hydrolysis kinetics than HEMAm-Lac1-2
